Assay results taken from patent US10316017B2, “COT modulators and methods of use thereof” (Gilead Sciences, Inc., priority 2015, dated 2019).

Experiments:
[1] = tested on: TNFα production in LPS-stimulated human monocytes; assay: Cot Monocyte TNFα Cell Based Assay; conditions: Homo sapiens, Monocyte, TNFα in LPS-stimulated human monocytes; read-out: EC50 TNF
Outline: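 5,000 cells/well; cmpd 1 h, 37 °C, 0.5% DMSO final; LPS 50 pg/ml, 4 h, 37 °C; media TNFα by HTRF sandwich (cryptate/XL665), RT overnight; % control vs unstimulated/stimulated wells.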

[2] = biological target: T1, human Cot catalytic domain (30-397 amino acids) (Homo sapiens, UniProt P41279); assay: High Throughput Cot Biochemical Assay (KinEASE TR-FRET); conditions: Cot biochemical HTRF (KinEASE TR-FRET) assay; read-out: IC50 HTRF
T1 construct: Purified recombinant human Cot catalytic domain (30-397 amino acids) was purchased from Cama Biosciences; purchased Cama Biosciences (so in the source)
Outline: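 First, purified human Cot (aa 30-397) at 5 nM phosphorylates an XL665-labeled STK3 peptide (1 μM) at 400 μM ATP, pH 7.0, 0.1% DMSO. Then a europium-conjugated phospho-specific antibody binds the product, giving the TR-FRET signal.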

T1 sequence (P41279 30-397): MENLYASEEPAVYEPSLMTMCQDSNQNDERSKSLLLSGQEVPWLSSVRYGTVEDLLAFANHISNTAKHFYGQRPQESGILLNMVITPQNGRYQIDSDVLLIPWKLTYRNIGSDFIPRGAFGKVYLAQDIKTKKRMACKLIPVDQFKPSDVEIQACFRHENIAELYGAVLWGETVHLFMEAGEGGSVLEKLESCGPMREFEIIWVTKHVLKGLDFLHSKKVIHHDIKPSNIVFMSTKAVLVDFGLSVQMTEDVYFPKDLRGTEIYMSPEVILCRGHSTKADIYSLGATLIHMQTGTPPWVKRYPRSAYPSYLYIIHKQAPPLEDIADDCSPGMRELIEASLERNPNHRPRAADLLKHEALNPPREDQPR

| SMILES | EC50 [1] | IC50 [2] |
| --- | --- | --- |
| CC(C)(C)N1CCC(n2cc([C@@H](Nc3cc(Cl)c4ncc(C#N)c(Nc5cc(Cl)ccc5F)c4c3)c3ccc(Cl)cc3)nn2)CC1 [Example 652, (S)-6-(((1-(1-(tert-butyl)piperidin-4-yl)-1H-1,2,3-triazol-4-yl)(4-chlorophenyl)methyl)amino)-8-chloro-4-((5-chloro-2-fluorophenyl)amino)quinoline-3-carbonitrile] | 7660 nM | 61 nM |
| CC(C)(C)N1CCC(n2cc([C@@H](Nc3cc(Cl)c4ncc(C#N)c(Nc5c(F)cccc5F)c4c3)c3ccc(Cl)cc3)nn2)CC1 [Example 653, (S)-6-(((1-(1-(tert-butyl)piperidin-4-yl)-1H-1,2,3-triazol-4-yl)(4-chlorophenyl)methyl)amino)-8-chloro-4-((2,6-difluorophenyl)amino)quinoline-3-carbonitrile] | 9280 nM | 160 nM |
| CC(C)(C)N1CCC(n2cc([C@@H](Nc3cc(Cl)c4ncc(C#N)c(Nc5ccc(OCc6ccccc6)c(Cl)c5)c4c3)c3ccc(Cl)cc3)nn2)CC1 [Example 654, (S)-4-((4-(benzyloxy)-3-chlorophenyl)amino)-6-(((1-(1-(tert-butyl)piperidin-4-yl)-1H-1,2,3-triazol-4-yl)(4-chlorophenyl)methyl)amino)-8-chloroquinoline-3-carbonitrile] | > 50000 nM | 2040 nM |
| CCOc1ccc(Nc2c(C#N)cnc3c(Cl)cc(N[C@@H](c4ccc(Cl)cc4)c4cn(C5CCN(C(C)(C)C)CC5)nn4)cc23)cc1Cl [Example 655, (S)-6-(((1-(1-(tert-butyl)piperidin-4-yl)-1H-1,2,3-triazol-4-yl)(4-chlorophenyl)methyl)amino)-8-chloro-4-((3-chloro-4-ethoxyphenyl)amino)quinoline-3-carbonitrile] | 10500 nM | 324 nM |
| C[C@@H](Nc1c(C#N)cnc2c(Cl)cc(N[C@@H](c3ccccc3)c3c[nH]nn3)cc12)c1ccccc1 [Example 656, 8-chloro-6-(((S)-phenyl(1H-1,2,3-triazol-4-yl)methyl)amino)-4-(((R)-1-phenylethyl)amino) quinoline-3-carbonitrile] | 1820 nM | 39 nM |
| C[C@@H](Nc1c(C#N)cnc2c(Cl)cc(N[C@@H](c3ccc(Cl)cc3)c3c[nH]nn3)cc12)c1ccccc1 [Example 657, 8-chloro-6-(((S)-(4-chlorophenyl)(1H-1,2,3-triazol-4-yl)methyl)amino)-4-(((R)-1-phenylethyl)amino)quinoline-3-carbonitrile] | 2490 nM | 143 nM |
| C[C@H](CNc1c(C#N)cnc2c(Cl)cc(N[C@@H](c3ccc(Cl)cc3)c3cn(C4CCN(C(C)(C)C)CC4)nn3)cc12)c1ccccc1 [Example 658, 6-(((S)-(1-(1-(tert-butyl)piperidin-4-yl)-1H-1,2,3-triazol-4-yl)(4-chlorophenyl)methyl)amino)-8-chloro-4-(((S)-2-phenylpropyl)amino)quinoline-3-carbonitrile] | 12200 nM | 27 nM |
| C[C@@H](CNc1c(C#N)cnc2c(Cl)cc(N[C@@H](c3ccc(Cl)cc3)c3cn(C4CCN(C(C)(C)C)CC4)nn3)cc12)c1ccccc1 [Example 659, 6-(((S)-(1-(1-(tert-butyl)piperidin-4-yl)-1H-1,2,3-triazol-4-yl)(4-chlorophenyl)methyl)amino)-8-chloro-4-(((R)-2-phenylpropyl)amino)quinoline-3-carbonitrile] | 5350 nM | 95 nM |
| CC(C)(C)N1CCC(n2cc([C@@H](Nc3cc(Cl)c4ncc(C#N)c(Nc5cnc(F)c(F)c5)c4c3)c3ccc(Cl)cc3)nn2)CC1 [Example 660, (S)-6-(((1-(1-(tert-butyl)piperidin-4-yl)-1H-1,2,3-triazol-4-yl)(4-chlorophenyl)methyl)amino)-8-chloro-4-((5,6-difluoropyridin-3-yl)amino)quinoline-3-carbonitrile] | 807 nM | 14 nM |
| CC(C)(C)N1CCC(n2cc([C@@H](Nc3cc(Cl)c4ncc(C#N)c(NC5CCOCC5)c4c3)c3ccc(Cl)cc3)nn2)CC1 [Example 662, (S)-6-(((1-(1-(tert-butyl)piperidin-4-yl)-1H-1,2,3-triazol-4-yl)(4-chlorophenyl)methyl)amino)-8-chloro-4-((tetrahydro-2H-pyran-4-yl)amino)quinoline-3-carbonitrile] | 1270 nM | 70 nM |
| CC1(Nc2c(C#N)cnc3c(Cl)cc(N[C@@H](c4ccc(Cl)cc4)c4cn(C5CCN(C(C)(C)C)CC5)nn4)cc23)CCCCC1 [Example 663, (S)-6-(((1-(1-(tert-butyl)piperidin-4-yl)-1H-1,2,3-triazol-4-yl)(4-chlorophenyl)methyl)amino)-8-chloro-4-((1-methylcyclohexyl)amino) quinoline-3-carbonitrile] | 4740 nM | 72 nM |
| CC(C)(C)N1CCC(n2cc([C@@H](Nc3cc(Cl)c4ncc(C#N)c(Nc5cc(Cl)c(Cl)cc5F)c4c3)c3ccc(Cl)cc3)nn2)CC1 [Example 664, (S)-6-(((1-(1-(tert-butyl)piperidin-4-yl)-1H-1,2,3-triazol-4-yl)(4-chlorophenyl)methyl)amino)-8-chloro-4-((4,5-dichloro-2-fluorophenyl)amino)quinoline-3-carbonitrile] | 8150 nM | 379 nM |
| N#Cc1cnc2c(Cl)cc(N[C@@H](c3ccccc3)c3cn(CCCF)nn3)cc2c1Nc1ccc(F)c(Cl)c1 [Example 666, (S)-8-chloro-4-((3-chloro-4-fluorophenyl)amino)-6-(((1-(3-fluoropropyl)-1H-1,2,3-triazol-4-yl)(phenyl)methyl)amino) quinoline-3-carbonitrile] | 458 nM | 14 nM |
| N#Cc1cnc2c(Cl)cc(N[C@@H](c3ccccc3)c3c[nH]nn3)cc2c1Nc1ccc(F)c(Cl)c1 [Example 667, (S)-8-chloro-4-((3-chloro-4-fluorophenyl)amino)-6-((phenyl(1H-1,2,3-triazol-4-yl)methyl)amino)quinoline-3-carbonitrile] | 887 nM | 28 nM |
| CC(C)(C)C(=O)OCn1cc([C@@H](Nc2cc(Cl)c3ncc(C#N)c(Nc4ccc(F)c(Cl)c4)c3c2)c2ccccc2)nn1 [Example 668, (S)-(4-(((8-chloro-4-((3-chloro-4-fluorophenyl)amino)-3-cyanoquinolin-6-yl)amino)(phenyl)methyl)-1H-1,2,3-triazol-1-yl)methyl pivalate] | 1610 nM | 97 nM |
| N#Cc1cnc2c(Cl)cc(N[C@@H](c3ccccc3)c3cn(CC(F)F)nn3)cc2c1Nc1ccc(F)c(Cl)c1 [Example 669, (S)-8-chloro-4-((3-chloro-4-fluorophenyl)amino)-6-(((1-(2,2-difluoroethyl)-1H-1,2,3-triazol-4-yl)(phenyl)methyl)amino) quinoline-3-carbonitrile] | 1090 nM | 39 nM |
| CC(C)(C)C(=O)c1cccc([C@H](Nc2cc(Cl)c3ncc(C#N)c(Nc4ccc(F)c(Cl)c4)c3c2)c2cn(C3CCN(C(C)(C)C)CC3)nn2)c1 [Example 671, (S)-6-(((1-(1-(tert-butyl)piperidin-4-yl)-1H-1,2,3-triazol-4-yl)(3-pivaloylphenyl)methyl)amino)-8-chloro-4-((3-chloro-4-fluorophenyl)amino)quinoline-3-carbonitrile] | 682 nM | 10 nM |
